From US11357749B2, “Methods for treating neutropenia” (Enzychem Lifesciences Corporation, priority 2014, dated 2022)

Assays:
C3 [1] = assay: C3 expression (RT-PCR) in IL-4/TNF-α treated HMC-1 cells; type: cell-based, human; details: HMC-1 cells treated with IL-4 and TNF-α; PLAG 0.1 and 1 μg/mL
Experimental: A blood cell line, HMC-1 (human mast cell, American Type Culture Collection, ATCC, Rockville, Md.) is incubated and maintained at 37° C. under 5% CO2 humid conditions. The medium is IMDM (Life Technologies, Karlsruhe, Germany) containing 10% Fetal Calf Serum (FCS, HyClone, Logan, Utah), 2 mM […], 100 μg/ml penicillin, 100 μg/ml streptomycin (Life Technologies). The cultured HMC-1 cells (1×10^6 cell/ml) are pre-treated with 0.1 and 1 μg/mL concentration of PLAG, followed by treating with IL-4 (5 ng) and/or TNF-α (10 ng) to induce cellular activities.
The expressed C3 and its mRNA level change are observed by using RT-PCR (Reverse Transcriptase Polymerase Chain Reaction). The RT-PCR is carried out as follows: the total RNA is separated by the standard protocol and cDNA is synthesized using AccuScript High Fidelity 1st Strand cDNA Synthesis Kit (Stratagene) by the manufacturer's instructions. Two-step RT-PCR reaction is conducted using Oligo-dT primer and reverse transcriptase, pair of primer and Taq polymerase (Takara, Shiga, Japan). […] The product of PCR is separated using 1.5% agarose gel, dyed with ethidium bromide (EtBr), and visualized with Gel Doc 2000 UV trans-illuminator (Bio-Rad Laboratories, Hercules, Calif., USA), and the experimental data is analyzed using Quantity One software (Bio-Rad Laboratories).

C3 [2] = assay: C3 mRNA (RT-PCR) in HepG2 cells; type: cell-based, human; details: HepG2, 10 and 100 microgram/ml of S6I, compared with PLAG
Experimental: A liver cell line, HepG2 (American Type Culture Collection, ATCC, Rockville, Md.), is incubated and maintained at 37° C., 5% CO2 humid atmosphere in DMEM medium. When HepG2 cells, which are known to produce complement in culture, are treated with PLAG, the activity of complement is reduced effectively, as confirmed by RT-PCR of mRNA. In the RT-PCR, 5×10^5 number of HepG2 cells/ml are distributed into 12 well plates and induced C3 for 12 hours with 10% FCS. Then PLAG is added and further cultured for 2 hours. Cells are harvested and mRNA is isolated and RT-PCR is carried out with specific primer of C3; GAPDH is used as an internal control.

[3] = system: white blood cells and neutrophils; assay: Cyclophosphamide-induced neutropenia in mice, G-CSF with or without PLAG; type: in vivo; details: mice, cyclophosphamide 100 mpk i.p. ten days; G-CSF 0.25 mpk i.p.; PLAG 25 mpk p.o.
Description: Mice receive cyclophosphamide (100 mpk, i.p.) for a period of ten days, with or without G-CSF (0.25 mpk, i.p.) or G-CSF (0.25 mpk, i.p.) plus PLAG (25 mpk, p.o.): […]

| Molecule | expression of C3 (C3 [1]) | C3 expression (RT-PCR) (C3 [2]) | Neutrophils [3] [k/μl] | White blood cells (WBCs) [3] [k/μl] |
| --- | --- | --- | --- | --- |
| NC(=O)c1cnc(NCCc2ccc(O)c(Cl)c2)nc1NCc1ccccc1 [S6I, reference compound] | suppresses expression of C3 | comparable | – | – |
| G-CSL: Granulocyte-colony stimulating factor, glycoprotein that stimulates hematopoietic precursor cells; 0.25 mpk i.p. in mice (protein, UniProt P09920 31-208, looked up) Granulocyte …: VPLVTVSALPPSLPLPRSFLLKSLEQVRKIQASGSVLLEQLCATYKLCHPEELVLLGHSLGIPKASLSGCSSQALQQTQCLSQLHSGLCLYQGLLQALSGISPALAPTLDLLQLDVANFATTIWQQMENLGVAPTVQPTQSAMPAFTSAFQRRAGGVLAISYLQGFLETARLALHHLA | – | – | 4.36 | 5.37 |
